Test results from patent publication US7718809B2, “Chromane substituted benzimidazole derivatives as acid pump antagonists” (RaQualia Pharma Inc., priority 2005, dated 2010).

The compounds below were run against T1, porcine gastric H+/K+-ATPase (Sus scrofa, UniProt P19156) (assay: Ion-tight porcine gastric H+/K+-ATPase inhibition). Settings: ion-tight gastric vesicles, 150 mM KCl, valinomycin, pH 7.4, 37° C.
T1 construct: prepared from mucous membrane in fresh porcine stomachs by homogenization; from tissue; host or cells: mucous membrane of fresh porcine stomachs (gastric vesicles)
T1 sequence (P19156 2-1034 limits assumed): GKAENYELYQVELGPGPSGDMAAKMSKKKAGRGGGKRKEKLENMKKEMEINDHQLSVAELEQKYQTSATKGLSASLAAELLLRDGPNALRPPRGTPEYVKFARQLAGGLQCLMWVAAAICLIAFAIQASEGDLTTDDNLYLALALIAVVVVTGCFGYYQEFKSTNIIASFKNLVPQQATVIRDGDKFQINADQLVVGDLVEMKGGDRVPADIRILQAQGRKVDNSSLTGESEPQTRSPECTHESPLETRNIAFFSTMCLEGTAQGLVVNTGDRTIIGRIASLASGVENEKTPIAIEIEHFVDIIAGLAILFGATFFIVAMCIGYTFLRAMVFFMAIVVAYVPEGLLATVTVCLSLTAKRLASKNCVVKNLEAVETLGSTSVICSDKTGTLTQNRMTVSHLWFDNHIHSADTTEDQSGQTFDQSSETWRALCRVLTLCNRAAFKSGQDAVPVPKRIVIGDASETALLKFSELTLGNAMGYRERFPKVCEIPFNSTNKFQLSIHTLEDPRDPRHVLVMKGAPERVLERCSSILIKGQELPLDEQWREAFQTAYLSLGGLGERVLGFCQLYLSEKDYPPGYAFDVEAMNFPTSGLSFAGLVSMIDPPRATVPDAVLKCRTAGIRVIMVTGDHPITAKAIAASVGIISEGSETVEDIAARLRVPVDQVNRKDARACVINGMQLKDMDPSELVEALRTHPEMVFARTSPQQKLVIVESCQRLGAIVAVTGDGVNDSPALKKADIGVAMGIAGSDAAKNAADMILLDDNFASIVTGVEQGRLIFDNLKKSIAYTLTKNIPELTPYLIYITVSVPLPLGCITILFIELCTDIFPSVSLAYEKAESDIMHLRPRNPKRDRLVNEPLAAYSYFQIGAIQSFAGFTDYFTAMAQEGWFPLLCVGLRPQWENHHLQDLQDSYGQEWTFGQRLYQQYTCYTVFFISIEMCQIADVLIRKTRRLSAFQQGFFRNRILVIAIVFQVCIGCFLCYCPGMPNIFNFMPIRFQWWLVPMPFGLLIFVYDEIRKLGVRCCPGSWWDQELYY
T1 sequence (P18434 whole entry partner): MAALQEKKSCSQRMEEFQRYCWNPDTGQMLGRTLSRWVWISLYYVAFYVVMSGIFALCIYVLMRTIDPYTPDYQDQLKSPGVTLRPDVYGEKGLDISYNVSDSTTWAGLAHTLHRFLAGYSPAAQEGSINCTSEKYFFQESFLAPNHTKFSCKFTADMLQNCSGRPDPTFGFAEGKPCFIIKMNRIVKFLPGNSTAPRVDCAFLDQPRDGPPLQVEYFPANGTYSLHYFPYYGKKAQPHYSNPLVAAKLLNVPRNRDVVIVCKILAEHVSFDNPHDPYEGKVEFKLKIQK
Assay type: biochemical
Procedure: The porcine gastric vesicles for Porcine gastric H^+/K^+-ATPase inhibition assays were prepared from mucous membrane in fresh porcine stomachs by homogenization with a tight-fitted polytetrafluoroethylene (Teflone®) homogenizer in 0.25 M sucrose at 4° C. The crude pellet was removed with centrifugation at 20,000 g for 30 min. Then supernatant was centrifuged at 100,000 g for 30 min. The resulting pellet was re-suspended in 0.25 M sucrose, and then subjected to density gradient centrifugation at 132,000 g for 90 min. The gastric vesicles were collected from interface on 0.25 M sucrose layer containing 7% Ficoll™ PM400(Amersham Biosciences). This procedure was performed in a cold room.
Ion-tight porcine gastric H^+/K^+-ATPase inhibition was measured according to the modified method described in Biochemical Pharmacology, 1988, 37, 2231-2236.
The isolated vesicles were kept in deep-freezer until use. For enzyme assay, vesicles were diluted with 3 mM MgSO4 containing 5 mM Tris (pH 7.4 at 37° C).
Enzyme reaction was performed incubating 150 mM KCl, 3 mM Na2ATP, 3 mM MgSO4, 15 μM valinomycin and 3.0 μg of vesicles for 30 minutes at 37° C. in a final 60 μl of reaction mixture (5 mM Tris, pH 7.4) with or without the test compound. Enzyme reaction was stopped by adding 10% SDS. Released inorganic phosphate from ATP was detected by incubating with mixture of 1 part of 35 mM ammonium molybdate tetrahydrate in 15 mM Zinc acetate hydrate and 4 parts of 10% ascorbic acid (pH 5.0), resulting in phosphomolybdate, which has optical density at 750 nm.

Row | Structure (SMILES) | IC50 [nM]
1 | Cc1nc2c(OC3CCOc4cccc(F)c43)cc(C(=O)N(C)C)cc2n1C (racemic) [Example 9, 4-[(5-Fluoro-3,4-dihydro-2H-chromen-4-yl)oxy]-N,N,1,2-tetramethyl-1H-benzimidazole-6-carboxamide] | 960
2 | CNC(=O)c1cc(OC2CCOc3cc(F)cc(F)c32)c2nc(C)n(C)c2c1 (racemic) [Example 19, 4-[(5,7-Difluoro-3,4-dihydro-2H-chromen-4-yl)oxy]-N,1,2-trimethyl-1H-benzimidazole-6-carboxamide] | 680
3 | Cc1nc2c(OC3CCOc4cc(F)ccc43)cc(C(=O)N(C)C)cc2n1C (single isomer, unassigned; (+)) [Example 4, (+)-4-[(7-Fluoro-3,4-dihydro-2H-chromen-4-yl)oxy]-N,N,1,2-tetramethyl-1H-benzimidazole-6-carboxamide] | 440
4 | CNC(=O)c1cc(OC2CCOc3cc(F)cc(F)c32)c2nc(C)n(C)c2c1 (single isomer, unassigned; (+)) [Example 21, (+)-4-[(5,7-Difluoro-3,4-dihydro-2H-chromen-4-yl)oxy]-N,1,2-trimethyl-1H-benzimidazole-6-carboxamide] | 490
5 | Cc1nc2c(OC3CCOc4cc(F)cc(F)c43)cc(C(=O)N3CCC3)cc2n1C (single isomer, unassigned; (+)) [Example 24, (+)-6-(Azetidin-1-ylcarbonyl)-4-[(5,7-difluoro-3,4-dihydro-2H-chromen-4yl)oxy]-1,2-dimethyl-1H-benzimidazole] | 620
6 | Cc1nc2c(OC3CCOc4cc(F)ccc43)cc(C(=O)N(C)C)cc2n1C (single isomer, unassigned; (-)) [Example 3, (−)-4-[(7-Fluoro-3,4-dihydro-2H-chromen-4-yl)oxy]-N,N,1,2-tetramethvl-1H-benzimidazole-6-carboxamide] | 440
7 | CNC(=O)c1cc(OC2CCOc3cc(F)cc(F)c32)c2nc(C)n(C)c2c1 (single isomer, unassigned; (-)) [Example 20, (−)-4-[(5,7-Difluoro-3,4-dihydro-2H-chromen-4-yl)oxy]-N,1,2-trimethyl-1H-benzimidazole-6-carboxamide] | 610
8 | Cc1nc2c(OC3CCOc4cc(F)cc(F)c43)cc(C(=O)N3CCC3)cc2n1C (single isomer, unassigned; (-)) [Example 23, (−)-6-(Azetidin-1-ylcarbonyl)-4-[(5,7-difluoro-3,4-dihydro-2H-chromen-4-yl)oxy]-1,2-dimethyl-1H-benzimidazole] | 440
9 | Cc1nc2c(OC3CCOc4ccccc43)cc(C(=O)N(C)C)cc2n1C (stereo not drawn) [Example 1, 4-(3,4-Dihydro-2H-chromen-4-yloxy)-N,N,1,2-tetramethyl-1H-benzimidazole-6-carboxamide] | 560
10 | Cc1nc2c(OC3CCOc4ccccc43)cc(C(=O)N(C)CCO)cc2n1C (stereo not drawn) [Example 11, 4-(3,4-Dihydro-2H-chromen-4-yloxy)-N-(2-hydroxyethyl)-N,1,2-trimethyl-1H-benzimidazole-6-carboxamide] | 430
11 | Cc1nc2c(OC3CCOc4ccccc43)cc(C(=O)N3CC[C@H](O)C3)cc2n1C (stereo partly drawn) [Example 12, (3S)-1-{[4-(3,4-Dihydro-2H-chromen-4-yloxy)-1,2-dimethyl-1H-benzimidazol-6-yl]carbonyl}pyrrolidin-3-ol] | 670
12 | Cc1nc2c(OC3CCOc4ccccc43)cc(C(=O)N3CCC[C@@H]3CO)cc2n1C (stereo partly drawn) [Example 14] | 980
13 | Cc1nc2c(OC3CCOc4ccccc43)cc(C(=O)N3CCN(C)CC3)cc2n1C (stereo not drawn) [Example 15, 4-(3,4-Dihydro-2H-chromen-4-yloxy)-1,2-dimethyl-6-[(4-methylpiperazin-1-yl)carbonyl]-1H-benzimidazole] | 950
14 | Cc1nc2c(OC3CCOc4cc(F)cc(F)c43)cc(C(=O)N3CCCC3)cc2n1C (stereo not drawn) [Example 25, 4-[(5,7-Difluoro-3,4-dihydro-2H-chromen-4-yl)oxy]-1,2-dimethyl-6-(pyrrolidin-1-ylcarbonyl)-1H-benzimidazole] | 590
15 | Cc1nc2c(OC3CCOc4cc(F)cc(F)c43)cc(C(=O)N3CC(C)(O)C3)cc2n1C (stereo not drawn) [Example 26, 1-({4-[(5,7-Difluoro-3,4-dihydro-2H-chromen-4-yl)oxy]-1,2-dimethyl-1H-benzimidazol-6-yl}carbonyl)-3-methylazetidin-3-ol] | 480

The next compounds have a lower IC50 than those just listed; values first:

Row | IC50 [nM] | Structure (SMILES)
16 | 69 | Cc1nc2c(OC3CCOc4cc(F)ccc43)cc(C(=O)N(C)C)cc2n1C (racemic) [Example 2, 4-[(7-Fluoro-3,4-dihydro-2H-chromen-4-yl)oxy]-N,N,1,2-tetramethyl-1H-benzimidazole-6-carboxamide]
17 | 90 | Cc1nc2c(OC3CCOc4cc(F)cc(F)c43)cc(C(=O)N(C)C)cc2n1C (racemic) [Example 5, 4-[(5,7-Difluoro-3,4-dihydro-2H-chromen-4-yl)oxy]-N,N,1,2-tetramethyl-1H-benzimidazole-6-carboxamide]
18 | 180 | Cc1nc2c(OC3CCOc4cc(F)cc(F)c43)cc(C(=O)N3CCC3)cc2n1C (racemic) [Example 22, 6-(Azetidin-1-ylcarbonyl)-4-[(5,7-difluoro-3,4-dihydro-2H-chromen-4-yl)oxy]-1,2-dimethyl-1H-benzimidazole]
19 | 220 | Cc1nc2c(OC3CCOc4cc(F)cc(F)c43)cc(C(=O)N(C)C)cc2n1C (single isomer, unassigned; (+)) [Example 7, (+)-4-[(5,7-Difluoro-3,4-dihydro-2H-chromen-4-yl)oxy]-N,N,1,2-tetramethyl-1H-benzimidazole-6-carboxamide]
20 | 240 | Cc1nc2c(OC3CCOc4cccc(F)c43)cc(C(=O)N(C)C)cc2n1C (single isomer, unassigned; (+)) [Example 18, (+)-4-{[5-Fluoro-3,4-dihydro-2H-chromen-4-yl]oxy}-N,N,1,2-tetramethyl-1H-benzimidazole-6-carboxamide]
21 | 210 | Cc1nc2c(OC3CCOc4cc(F)cc(F)c43)cc(C(=O)N(C)C)cc2n1C (single isomer, unassigned; (-)) [Example 6, (−)-4-[(5,7-Difluoro-3,4-dihydro-2H-chromen-4-yl)oxy]-N,N,1,2-tetramethyl-1H-benzimidazole-6-carboxamide]
22 | 340 | Cc1nc2c(OC3CCOc4cccc(F)c43)cc(C(=O)N(C)C)cc2n1C (single isomer, unassigned; (-)) [Example 17, (−)-4-{[5-Fluoro-3,4-dihydro-2H-chromen-4-yl]oxy}-N,N,1,2-tetramethyl-1H-benzimidazole-6-carboxamide]
23 | 180 | Cc1cccc2c1C(Oc1cc(C(=O)N(C)C)cc3c1nc(C)n3C)CCO2 (stereo not drawn) [Example 8, N,N,1,2-Tetramethyl-4-[(5-methyl-3,4-dihydro-2H-chromen-4-yl)oxy]-1H-benzimidazole-6-carboxamide]
24 | 320 | Cc1nc2c(OC3COCc4ccccc43)cc(C(=O)N(C)C)cc2n1C (stereo not drawn) [Example 10, 4-(3,4-Dihydro-1H-isochromen-4-yloxy)-N,N,1,2-tetramethvl-1H-benzimidazole-6-carboxamide]
25 | 120 | Cc1nc2c(OC3CCOc4ccccc43)cc(C(=O)N3CC[C@@H](O)C3)cc2n1C (stereo partly drawn) [Example 13, (3R)-1-{[4-(3,4-Dihydro-2H-chromen-4-yloxy)-1,2-dimethyl-1H-benzimidazol-6-yl]carbonyl}pyrrolidin-3-ol]
26 | 140 | CC(=O)N1CCN(C(=O)c2cc(OC3CCOc4ccccc43)c3nc(C)n(C)c3c2)CC1 (stereo not drawn) [Example 16, 6-[(4-Acetylpiperazin-1-yl)carbonyl]-4-(3,4-dihydro-2H-chromen-4-yloxy)-1,2-dimethyl-1H-benzimidazole]

These compounds were tested on gastric acid secretion (assay: Inhibition of gastric acid secretion in the Heidenhain pouch dog). Settings: histamine-stimulated (80 μg/kg/h) acid secretion, oral or intravenous bolus administration.
Assay type: in vivo, Beagle dogs
Procedure: Male Beagle dogs weighing 7-15 kg with Heidenhain pouch [Heidenhain R: Arch Ges Physiol. 1879; 19: 148-167] were used. The animals were allowed to recover from surgery for at least three weeks before the experiments. The animals were kept at a 12 hour light-dark rhythm, housed singly. They received standard food once daily at 11:00 a.m. and tap water ad libitum, and were fasted overnight prior to the experiment, with free access to water. Gastric juice samples were collected throughout the experiment by gravity drainage every 15 min. Acidity in the gastric juice was measured by titration to the end point of pH 7.0. Acid secretion was stimulated by a continuous intravenous infusion of histamine (80 μg/kg/h). Oral or intravenous bolus administration of the test compounds was done 90 minutes after commencement of the histamine infusion. The acid secretion was monitored after the administration. The activity was evaluated by the maximum inhibition relative to the corresponding control value.

Row | Structure (SMILES) | inhibitory activity (maximum inhibition of acid secretion relative to control)
27 | Cc1nc2c(OC3CCOc4cc(F)cc(F)c43)cc(C(=O)N(C)C)cc2n1C (single isomer, unassigned; (-)) [Example 6, (−)-4-[(5,7-Difluoro-3,4-dihydro-2H-chromen-4-yl)oxy]-N,N,1,2-tetramethyl-1H-benzimidazole-6-carboxamide] | good inhibitory activity
